From US20200218874A1, “A LABEL-FREE METHOD AND SYSTEM FOR MEASURING DRUG RESPONSE KINETICS OF THREE-DIMENSIONAL CELLULAR STRUCTURES” (AGENCY FOR SCIENCE, TECHNOLOGY AND RESEARCH, priority 2017, published 2020)
“Also recorded” adds a separate entry of the source.

Tests used:
[1] = system: patient-derived tumour spheroids (head and neck cancer patient); experiment: Label-free image-based drug response (LaFOS) of 3D tumour spheroids over time; assay type: cell-based, human; conditions: for response of tumour spheroids over time (LaFOS time-course): 24, 48 and 72 hours after treatment, 1 μM
Procedure: The examples used in this disclosure were generated by seeding 5000 cells into each well of Corning® 384 Well Black Clear Round Bottom Ultra-Low Attachment Spheroid Microplates. The assay plates were incubated at 37° C., 5% CO2 over 3 days to allow formation of the tumour spheroids. At 96 hours, the spheroids were imaged (labelled as “untreated” in the study) using a confocal microscope at 20× (Perkin Elmer Opera Phenix High Content Screening system) and then treated at 1 μM of the compounds (in DMSO). In total, 1,231 spheroids were generated and treated in duplicates at 96 hours with small molecule and kinase inhibitors from the Selleck Anti-cancer library and Selleck Kinase Inhibitor chemical library. The drug treated spheroids were imaged subsequently at 24, 48 and 72 hours after treatment.
Bright-field images of the 1,231 spheroids acquired at different time-points and z-planes were computationally segmented into proliferating (red), quiescent (green) and necrotic (yellow) zones through a method referred to as “Spheroid Peeling” (FIG. 5). Other imaging methods can also be used—Phase contrast imaging, electron microscopy, wide-field, dark-field, super-resolution microscopy, and many more.
Briefly, “Spheroid Peeling” involves repeatedly segmenting the spheroid image from the periphery to the core zone. The entire spheroid was first segmented as an object (hereby referred to as spheroid object) and cropped from the original well image (FIG. 6). An “inner core” was then identified from the spheroid object, hereby referred to as quiescent object. The proliferating zone was obtained by masking the quiescent object from the spheroid object. Similarly, the necrotic zone was identified as the “inner core” of the quiescent object, and the quiescent zone was obtained by masking the necrotic zone from the quiescent object. A number of image features were quantified from each of the proliferating, quiescent and necrotic zones, resulting in a total of 504 image descriptors for each spheroid. The “spheroid peeling” algorithm can be written in a number of languages or image analysis tool, such as Cell Profiler, MATLAB or ImageJ.
FIG. 19 is a flow diagram 700 showing a machine learning based training method in accordance with the present disclosure for generating a computational model (or learning model) of drug response in spheroids. Two sets of spheroids were generated for imaging and for viability measurement, respectively. The two sets of spheroids were treated with the same drugs. For feasibility testing, a training set of 1,231 spheroids 1902 was generated. At 72 hours after drug treatment, acquisition 1904 of bright-field images 1906 was obtained. As data preprocessing 708, “Spheroid Peeling” 1910 was applied to obtain, through image feature quantification 1912, 504 image descriptors from the Proliferating, Quiescent and Necrotic zones of each tumour spheroid, resulting in over ˜600K image descriptors 1916 in total.
The learning process generated a computational model 1922 that can be perceived as a complex multi-feature numerical quantification of the drug response of the spheroids. Generating the computational model includes one or more of training the computational model or determining parameters of the computational model. […]

[2] = system: spheroids derived from a head and neck cancer patient; experiment: Micrograph morphology of drug-treated patient-derived spheroids; assay type: cell-based, human; conditions: spheroids approximately 500 microns
Text: All three patient-derived spheroids are of similar sizes of approximately 500 microns.
On the other hand, morphological-based methods primarily use the size/volume or shape of the spheroids.

[3] = system: HN120M PDX; experiment: In vivo treatment of HN120M PDX-bearing mice; conditions: mice n=6, 5 mg kg^−1 i.p. once every 2 days
Text: (§1) Generation and passaging of PDXs. Tumour samples were obtained from patients post-surgery after obtaining informed patient consent in accordance to SingHealth Centralized Institutional Review Board (CIRB: 2014/2093/B). Tumours were minced into 1 mm^3 fragments and suspended in a mixture of 5% Matrigel (Corning, cat. no. 354234) in DMEM/F12 (Thermo Fisher, cat. no. 10565-018). The tumour fragment mixtures were then implanted subcutaneously into the left and right flanks of 5-7 weeks old NSG (NOD.Cg-Prkdcscid II2rgtm1Wjl/SzJ) (Jackson Laboratory, stock no. 005557) mice, using 18-gauge needles. Tumours were excised and passaged when they reached 1.5 cm^3. […]
(§2) Gefitinib (Iressa) was prepared by dissolving a 250 mg clinical grade tablet (AstraZeneca) in sterile water containing 0.05% Tween-80 (Sigma-Aldrich, cat. no. P4780) to a concentration of 10 mg/mL and administered at a dosage of 25 mg/kg daily via oral gavage. […] The length and width of tumours were measured by caliper once every 2 days. […] The weight of tumour was not directly measured, but were estimated using volume where the density of tissue was assumed to be 1 g/cm^3. The ratio of the change in treated tumour volume (ΔT) to the average change in control tumour volume (ΔT/Average ΔC) at each time point was calculated as follows: […]

[4] = system: HN137M PDX; experiment: In vivo treatment of HN137M PDX-bearing mice; conditions: male mice n=5, 2 mg kg^−1 i.p. once every 2 days
Text: as §1, §2

[5] = system: HN137P PDX; experiment: In vivo treatment of HN137P PDX-bearing mice; conditions: male mice n=5, 2 mg kg^−1 i.p. once every 2 days
Text: as §1, §2

With `COc1ncc(-c2ccc3nccc(-c4ccnnc4)c3c2)cc1NS(=O)(=O)c1ccc(F)cc1F` [GSK2126458] the “response of tumour spheroids over time (LaFOS time-course)” value (“response of tumour spheroids over time” below) [1] was “increasing efficacy” and the inhibition at 1 µM ([1]; Homo sapiens, over the course of 72 hours, duplicate spheroids (R1 and R2), treated at 1 μM, read-out: inhibition rate (4-dimensional drug response of tumor spheroids)) was 80%.
For `COc1cc(N2CCC(N3CCN(C)CC3)CC2)ccc1Nc1ncc(Cl)c(Nc2ccccc2S(=O)(=O)C(C)C)n1` [NVP-TAE684], the “response of tumour spheroids over time” value [1] was “increasing efficacy” and the “inhibition rate (4-dimensional drug response of tumor spheroids)” value ([1]; over the course of 72 hours, duplicate spheroids (R1 and R2), treated at 1 μM) was 60%.
In the case of `Cn1c(=O)n(-c2ccc(C(C)(C)C#N)cc2)c2c3cc(-c4cnc5ccccc5c4)ccc3ncc21` [BEZ235], the “response of tumour spheroids over time” value [1] is reported as “remain unchanged; also recorded: unresponsive”.
In the case of `N.N.[Cl][Pt][Cl]` [Cisplatin], the “morphological structure of tumour spheroid” value ([2]; high concentration) is reported as “enlarged core zone” and the “morphological structure of tumour spheroid” value ([2]; low concentration) is reported as “resembled that of the untreated spheroid”.
`CN1CC[C@H](c2c(O)cc(O)c3c(=O)cc(-c4ccccc4Cl)oc23)[C@H](O)C1` [Flavopiridol] was tested, and the “efficacy in in vivo model (PDX)” value [3] was “already validated in in vivo models”.
In the case of `COCCn1c2c([n+](Cc3cnccn3)c1C)C(=O)c1ccccc1C2=O` [YM155], the “anti-tumour effect in PDX (tumour volume vs vehicle)” value [4] is reported as “significant anti-tumour effect” and the “anti-tumour effect in PDX (tumour volume vs vehicle)” value [5] is reported as “did not display significant sensitivity”.
